Laboratory results published in publication PMC10693550, “Programmable de novo designed coiled coil-mediated phase separation in mammalian cells” (Nature Communications, 2023).
No end group written: not given here.

How the values were obtained:
FKBP/FRB [1] = test: Rapamycin-induced condensate assembly, split two-chain system with FKBP and FRB domains, NIH-3T3 cells; assay type: cell-based, H.sapiens; details: 1 μM rapamycin; NIH-3T3 cells expressing Cit(S1-S3)3-SAH, BFP(S2)3-gsFKBP and FRB(S4)3-gs; none with vehicle control
Source text: (§1) Our final goal was to engineer new properties into condensates and to provide regulation of CC-LLPS assembly or disassembly. […] To introduce chemically regulated assembly, we incorporated FKBP into the first chain and FRB domain into the second chain of the split protein. Upon the addition of rapamycin, those two domains heterodimerize and thus extend the length of the polypeptide.
(§2) Fig. 6 Design of chemical regulation of CC-LLPS. a One polypeptide chain of a condensate-forming pair BFP-(S2)3(S4)3-gs, was separated into two chains, each with 3 CC domains BFP-(S2)3-gs and (S4)3-gs. […] Scale bars, 10 μm.

FKBP/FRB [2] = test: Rapamycin-induced assembly of single-chain condensates from FKBP/FRB-fused APPAP halves, HEK293T cells; assay type: cell-based, H.sapiens; details: 1 μM rapamycin; HEK293T cells expressing Cit-APPAP-gs-FKBP and FRB-APPAP-gs; none with DMSO even 1 hour post-addition
Source text: as §1, §2

FKBP/FRB [3] = test: Rapamycin-regulated split TEVp protease dissolution of condensates, HEK293T cells; assay type: cell-based, H.sapiens; details: 1 μM rapamycin; HEK293T cells with TEVp site in one condensate-forming chain and rapamycin-regulated split TEVp
Source text: as §2

complementary peptide = test: Isothermal titration calorimetry (ITC) of orthogonal CC peptide pairs; assay type: binding; details: 50 mM Tris pH 7.5, 150 mM NaCl, 1 mM TCEP, uncertainty from Monte Carlo simulation of the fit
Protocol: MicroCal PEAQ-ITC (Malvern) was used to measure the equilibrium dissociation constant (Kd) of orthogonal CC pairs. A 40-µl injection syringe was filled with the peptide solution (1 mM P5f, P13f; 5.6 mM S1h or 5.4 mM S3h) in 50 mM Tris pH of 7.5, 150 mM NaCl, and 1 mM TCEP. The samples were injected into an ITC cell (volume 200 µl) filled with a complementary peptide (100 µM P6f or P14f and 560 µM S2h or 540 µM S4h) in a matching buffer through a 19-step process. The injection volumes were 2 µl and were spaced 120 s apart, except for the first priming injection of 0.4 µl with 150 s spacing. Raw thermograms were integrated with the software NITPIC[83], interaction analysis was done with SEDPHAT[84], and titration curves were visualized with a companion GUSSI software. Monte Carlo simulation for non-linear regression, aligning the model function with experimental values 1000 times was used to obtain uncertainties in the fitted model.
Supplementary Figure 2: Binding analysis between the weak 3-heptad and strong 4-heptad CC forming segment using isothermal titration calorimetry (ITC). a) For peptide pair S1h + S2h peptide concentration in 40 µl injection syringe was 5.6 mM for S1h and concentration of complementary peptide S2h in ITC cell (volume 200 µl) was 560 […]
concentration in 40 µl injection syringe was 5.4 mM S3h and concentration of complementary peptide S4h in ITC cell (volume 200 µl) was 540 µM.
± 0.5 kcal/mol. For peptide pair c) P5f + P6f and d) P13f + P14f, which are 4-heptad CC.
Peptide concentration in 40 µl injection syringe was 1 mM for P5f and P13f and concentration […]
± 0.5 µM and ΔH -13.7 +- 0.6 kcal/mol and d) Kd 2.3 ± 0.2 µM and ΔH -14.7 ± 0.6 kcal/mol.
All the peptides were dissolved in a matching buffer 50 mM Tris pH of 7.5, 150 mM NaCl, […]
(1 picture or pasted object on this page, not shown here)

P6f = target: T1, P6f; test: ITC; MicroCal PEAQ-ITC; syringe peptide (1 mM P5f, P13f; 5.6 mM S1h or 5.4 mM S3h) injected into the cell with the complementary peptide (100 µM P6f or P14f; 560 µM S2h or 540 µM S4h); 50 mM Tris pH 7.5, 150 mM NaCl, 1 mM TCEP; concentrations of the S peptides not stated; details: both partners purified
T1 chain: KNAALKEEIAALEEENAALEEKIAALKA

P14f = target: T2, P14f; test: as above; details: both partners purified
T2 chain: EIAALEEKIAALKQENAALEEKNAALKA

S2h = target: T3, S2h; test: as above; details: both partners purified
T3 chain: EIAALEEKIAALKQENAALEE

S4h = target: T4, S4h; test: as above; details: both partners purified
T4 chain: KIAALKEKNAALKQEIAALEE

[4] = 3-heptad Sh pairs, 5.6 mM S1h or 5.4 mM S3h in syringe into 560 µM S2h or 540 µM S4h in cell
[5] = 4-heptad pairs, 1 mM P5f or P13f in syringe into 100 µM P6f or P14f in cell

Q: Which results are given for `CO[C@H]1C[C@@H]2CC[C@@H](C)[C@@](O)(O2)C(=O)C(=O)N2CCCC[C@H]2C(=O)O[C@H]([C@H](C)C[C@@H]2CC[C@@H](O)[C@H](OC)C2)CC(=O)[C@H](C)/C=C(\C)[C@@H](O)[C@@H](OC)C(=O)[C@H](C)C[C@H](C)/C=C/C=C/C=C/1C` [rapamycin, Rapamycin]?
A: time after addition at which condensates started to form (FKBP/FRB [1]): 20 min; condensate formation after addition (in words) (FKBP/FRB [2]): after a few minutes; dissolution of condensates after addition (in words) (FKBP/FRB [3]): dissolution of condensates after a few minutes

Q: Which Kd (complementary peptide; [4]) does the source give for EIAALEEENAALEQKIAALKE [S3h-S4h] here?
A: Its Kd is 340 ± 70 µM.

Q: ENAALEEKIAALKEKNAALKEEIAALEA [P5f-P6f] was tested. Which Kd (complementary peptide; [5]) did it give?
A: The Kd was 5.9 ± 0.5 µM.

Q: With KIAALKEEIAALEQKNAALKE [S1h-S2h] as the molecule, how does the Kd (complementary peptide; [4]) read?
A: The Kd was 2300 ± 1500 µM.

Q: “KIAALKEEIAALEQKNAALKEENAALEA [P13f-P14f]” was tested. Which Kd (complementary peptide; [5]) did it give?
A: The Kd was 2.3 ± 0.2 µM.

B1: P5f (peptide)
chain: ENAALEEKIAALKEKNAALKEEIAALEA
Q: B1 was tested. Which Kd (P6f) did it give?
A: Its Kd is 5.9 ± 0.5 µM.

B2: P13f (peptide)
chain: KIAALKEEIAALEQKNAALKEENAALEA
Q: With B2 as the molecule, how does the Kd (P14f) read?
A: Its Kd is 2.3 ± 0.2 µM.

B3: S1h (peptide)
chain: KIAALKEEIAALEQKNAALKE
Q: How did the Kd (S2h) turn out when B3 was run?
A: The Kd was 2300 ± 1500 µM.

B4: S3h (peptide)
chain: EIAALEEENAALEQKIAALKE
Q: How did the Kd (S4h) turn out when B4 was run?
A: The Kd was 340 ± 70 µM.
